Measured values reported in BigSolDB 2.1.

COc1ccc2cccc(CCNC(C)=O)c2c1
solubility (mole fraction) (in ethanol, 278.15 K): 0.0109 | solubility (mole fraction) (in ethanol, 283.15 K): 0.0169 | solubility (mole fraction) (in ethanol, 288.15 K): 0.0235 | solubility (mole fraction) (in ethanol, 293.15 K): 0.0319 | solubility (mole fraction) (in ethanol, 298.15 K): 0.0425 | solubility (mole fraction) (in ethanol, 303.15 K): 0.0542 | solubility (mole fraction) (in ethanol, 308.15 K): 0.0819 | solubility (mole fraction) (in ethanol, 313.15 K): 0.109 | solubility (mole fraction) (in ethanol, 318.15 K): 0.144 | solubility (mole fraction) (in ethyl acetate, 278.15 K): 0.00662 | solubility (mole fraction) (in ethyl acetate, 283.15 K): 0.00934 | solubility (mole fraction) (in ethyl acetate, 288.15 K): 0.0131 | solubility (mole fraction) (in ethyl acetate, 293.15 K): 0.0175 | solubility (mole fraction) (in ethyl acetate, 298.15 K): 0.0263 | solubility (mole fraction) (in ethyl acetate, 303.15 K): 0.0342 | solubility (mole fraction) (in ethyl acetate, 308.15 K): 0.0454 | solubility (mole fraction) (in ethyl acetate, 313.15 K): 0.0598 | solubility (mole fraction) (in ethyl acetate, 318.15 K): 0.0754 | solubility (mole fraction) (in isopropanol, 278.15 K): 0.00499 | solubility (mole fraction) (in isopropanol, 283.15 K): 0.0107 | solubility (mole fraction) (in isopropanol, 288.15 K): 0.0186 | solubility (mole fraction) (in isopropanol, 293.15 K): 0.0256 | solubility (mole fraction) (in isopropanol, 298.15 K): 0.032 | solubility (mole fraction) (in isopropanol, 303.15 K): 0.039 | solubility (mole fraction) (in isopropanol, 308.15 K): 0.053 | solubility (mole fraction) (in isopropanol, 313.15 K): 0.0686 | solubility (mole fraction) (in isopropanol, 318.15 K): 0.0893 | solubility (mole fraction) (in methanol, 278.15 K): 0.0192 | solubility (mole fraction) (in methanol, 283.15 K): 0.0264 | solubility (mole fraction) (in methanol, 288.15 K): 0.0347 | solubility (mole fraction) (in methanol, 293.15 K): 0.0442 | solubility (mole fraction) (in methanol, 298.15 K): 0.0584 | solubility (mole fraction) (in methanol, 303.15 K): 0.0752 | solubility (mole fraction) (in methanol, 308.15 K): 0.101 | solubility (mole fraction) (in methanol, 313.15 K): 0.147 | solubility (mole fraction) (in methanol, 318.15 K): 0.18 | solubility (mole fraction) (in n-butanol, 278.15 K): 0.00986 | solubility (mole fraction) (in n-butanol, 283.15 K): 0.0147 | solubility (mole fraction) (in n-butanol, 288.15 K): 0.0214 | solubility (mole fraction) (in n-butanol, 293.15 K): 0.0279 | solubility (mole fraction) (in n-butanol, 298.15 K): 0.04 | solubility (mole fraction) (in n-butanol, 303.15 K): 0.05 | solubility (mole fraction) (in n-butanol, 308.15 K): 0.06 | solubility (mole fraction) (in n-butanol, 313.15 K): 0.0802 | solubility (mole fraction) (in n-butanol, 318.15 K): 0.107 | solubility (mole fraction) (in n-butyl acetate, 278.15 K): 0.00323 | solubility (mole fraction) (in n-butyl acetate, 283.15 K): 0.00474 | solubility (mole fraction) (in n-butyl acetate, 288.15 K): 0.00661 | solubility (mole fraction) (in n-butyl acetate, 293.15 K): 0.00944 | solubility (mole fraction) (in n-butyl acetate, 298.15 K): 0.0134 | solubility (mole fraction) (in n-butyl acetate, 303.15 K): 0.0207 | solubility (mole fraction) (in n-butyl acetate, 308.15 K): 0.0261 | solubility (mole fraction) (in n-butyl acetate, 313.15 K): 0.038 | solubility (mole fraction) (in n-butyl acetate, 318.15 K): 0.0507 | solubility (mole fraction) (in n-pentyl acetate, 278.15 K): 0.00181 | solubility (mole fraction) (in n-pentyl acetate, 283.15 K): 0.00281 | solubility (mole fraction) (in n-pentyl acetate, 288.15 K): 0.00432 | solubility (mole fraction) (in n-pentyl acetate, 293.15 K): 0.00601 | solubility (mole fraction) (in n-pentyl acetate, 298.15 K): 0.00884 | solubility (mole fraction) (in n-pentyl acetate, 303.15 K): 0.0156 | solubility (mole fraction) (in n-pentyl acetate, 308.15 K): 0.021 | solubility (mole fraction) (in n-pentyl acetate, 313.15 K): 0.0294 | solubility (mole fraction) (in n-pentyl acetate, 318.15 K): 0.0397 | solubility (mole fraction) (in n-propanol, 278.15 K): 0.00905 | solubility (mole fraction) (in n-propanol, 283.15 K): 0.016 | solubility (mole fraction) (in n-propanol, 288.15 K): 0.0201 | solubility (mole fraction) (in n-propanol, 293.15 K): 0.0261 | solubility (mole fraction) (in n-propanol, 298.15 K): 0.0402 | solubility (mole fraction) (in n-propanol, 303.15 K): 0.0484 | solubility (mole fraction) (in n-propanol, 308.15 K): 0.0694 | solubility (mole fraction) (in n-propanol, 313.15 K): 0.0892 | solubility (mole fraction) (in n-propanol, 318.15 K): 0.115 | solubility (mole fraction) (in n-propyl acetate, 278.15 K): 0.00406 | solubility (mole fraction) (in n-propyl acetate, 283.15 K): 0.00625 | solubility (mole fraction) (in n-propyl acetate, 288.15 K): 0.00886 | solubility (mole fraction) (in n-propyl acetate, 293.15 K): 0.0127 | solubility (mole fraction) (in n-propyl acetate, 298.15 K): 0.018 | solubility (mole fraction) (in n-propyl acetate, 303.15 K): 0.0255 | solubility (mole fraction) (in n-propyl acetate, 308.15 K): 0.0364 | solubility (mole fraction) (in n-propyl acetate, 313.15 K): 0.0466 | solubility (mole fraction) (in n-propyl acetate, 318.15 K): 0.0639 | solubility (mole fraction) (in water, 278.15 K): 1.8e-05 | solubility (mole fraction) (in water, 283.15 K): 2.9e-05 | solubility (mole fraction) (in water, 288.15 K): 4.59e-05 | solubility (mole fraction) (in water, 293.15 K): 6.85e-05 | solubility (mole fraction) (in water, 298.15 K): 0.000119 | solubility (mole fraction) (in water, 303.15 K): 0.000161 | solubility (mole fraction) (in water, 308.15 K): 0.000248 | solubility (mole fraction) (in water, 313.15 K): 0.00038 | solubility (mole fraction) (in water, 318.15 K): 0.000551
